Measurements: patent US6642003B2, “Human glucose-dependent insulin-secreting cell line” (Cedars-Sinai Medical Center, priority 2001, dated 2003)

Tests used:
PANC-1 cells [1] = experiment: Immunofluorescence for IDX-1, parental PANC-1 cells; format: cell-based, human; details: vehicle alone or GLP-1
Protocol: (§1) Cells were cultured on monocoated chamber slides (Nalge Nunc International; Naperville, Ill.) in the presence of GLP-1 (10 nM), or vehicle, for 72 h.
For the detection of IDX-1, slightly different conditions were used. Briefly: the concentration of paraformaldehyde was decreased to 2%, and the concentration of Triton to permeabilize the cells was raised to 0.2% Triton-X-100. Cells were then washed with 0.01 M PBS three times for 3-5 min, and non-specific binding was inhibited by using 5% chick serum in 0.01 M PBS, at room temperature for 60 min in a humid chamber. A rabbit IDX-1 antibody directed against the N-terminus of the frog homologue of the IDX-1 gene was used as the primary antibody (1:500 diluted with 0.1% Triton-X 100, 1% BSA in 0.01 M PBS), and slides were incubated at 4° C. overnight in a humid chamber. After washing, cells were incubated with a fluorescein-conjugated goat anti-rabbit IgG antibody (Molecular Probes, Inc. Eugene, Oreg.) and incubated at room temperature for 1 hour in a humid chamber. Nuclei of cells stained with anti-IDX-1 antibody were visualized with Hoechst […] dye (Sigma, St. Louis, Mo.). The percentage of IDX-1 containing cells was evaluated by counting the number of IDX-1 “positive” cells divided by the total number of cells identified by nuclear staining.

ARIP cells = experiment: Insulin release into culture medium (RIA), ARIP cells; format: cell-based, rat
Protocol: Rat (ARIP) and human (PANC-1) ductal cell lines were respectively a gift from Dr. J. M. Egan (National Institute on Aging, Baltimore, Md.) or purchased from ATCC (American Type Culture Collection; Manassas, Va.). ARIP cells were cultured in F12 medium (Gibco-BRL, Gaithersburg; Md.) containing 100 μg/ml penicillin, 50 μg/ml streptomycin and 10% fetal calf serum (FCS; Gibco-BRL) at 37° C. under a humidified condition of 95% air and 5% CO2. PANC-1 cells were cultured in DMEM medium supplemented with antibiotics and FCS, as indicated for F12 medium. Treatment with human GLP-1 (H-6795, Bachem; King of Prussia, Pa.) was carried out using cells grown to 80% of confluence, after washing the cell layer with serum-free medium and a “wash-out” incubation for 6-h with serum free medium. To determine dose response to GLP-1, cells were cultured with fresh serum-free medium containing increasing concentration of GLP-1 (0.1, 1, 10, 20 nM), or vehicle alone. At the completion of the experiment, media and cells were collected. To determine the time course of response, cells were cultured in serum-free medium with GLP-1 (10 nM) for 0, 12, 24, 48, 72 or 96 h. Control dishes were cultured with vehicle alone, or with the peptide receptor antagonist of GLP-1, Exendin-9 (100 nM) for 72 h (gift Dr. J. M. Egan). The glucose concentration in the culture medium was 12 mM for both cell lines.
PANC-1 (parental, IDX-1-transfected, and neomycin-transfected) cells and ARIP (only parental) cells were plated at density of 10^6 cells/well in a 6 well plate. Once the cells reached 80% of confluence, they were washed with serum-free medium containing 12 mM glucose and exposed to fresh serum-free medium for increasing length of time (0, 12, 24, 48, 72, 96 h) in the presence of various concentrations of GLP-1 (0.1, 1, 10, 20 nM) or vehicle. Glucose-dependent insulin secretion was evaluated by culturing the cells in the presence of a determined concentration of GLP-1 (10 nM for 72 h) with increasing concentration of glucose in the culture medium ([…]). Insulin released into the medium was measured by RIA (Linco Research Inc.; St. Charles, Mass.). Total insulin accumulation in the culture medium was then normalized for total cellular protein content per each Individual cultures.
Total cellular protein content was measured by utilizing the Bradford method (Bio-Rad; Richmond, Calif.). The amount of proteins measured was used as a correction factor for determining the relative amount of medium to be assayed for each individual RIA for insulin.

PANC-1/IDX-1 cells [2] = experiment: Immunocytochemistry and immunofluorescence for insulin, PANC-1/IDX-1 cells; format: cell-based, human; details: GLP-1 10 nM, 72 h
Protocol: (§2) PANC-1 cells were transfected with a pcDNA3 construct (Invitrogen; Carlsbad, Calif.) harboring the wild-type full-length IDX-1 cDNA using LipoTAXI (Catalog N. 204110; Mammalian Transfection Kit, Stratagene; La Jolla, Calif.). Control cells were transfected with the vector alone. The selection of positive (i.e. transfected) cells was carried out by culturing the cells in the presence of 400 μg/ml of G418 sulfate (GN-04, Omega; Tarzana, Calif.).
as §1
(§3) For the detection of insulin, cells were washed and fixed with 3% paraformaldehyde for 4 h, at room temperature in PBS, solubilized with 0.1% (vol/vol) Triton X-100 in PBS for 5 min. Cells were then incubated sequentially with an anti-insulin antibody and a secondary antibody, as described by the manufacturer (Biomeda Corp.; Foster City, Calif.). The cells were examined using a Ziess Axiophoto microscope (New York, N.Y.).
Insulin immunofluoresce, for co-immunostaining with IDX-1, was carried on using the […], while the secondary antibody was a goat anti-guinea pig IgG (Molecular Probes, Inc.). The cells were examined using a using a fluorescent microscope (E-800; Nikon, Tokyo).

PANC-1 cells [3] = experiment: Immunocytochemistry for insulin, parental PANC-1 cells; format: cell-based, human; details: presence or absence of GLP-1
Protocol: as §1, §3

PANC-1/IDX-1 cells [4] = experiment: Morphological changes (hematoxylin and eosin), PANC-1/IDX-1 cells; format: cell-based, human; details: GLP-1 10 nM for 72 h
Protocol: as §2
Hematoxylin and eosin staining was employed, in some experiments, to show the morphological changes observed under the experimental conditions described below.

PANC-1/IDX-1 cells [5] = experiment: Immunofluorescence for IDX-1, PANC-1/IDX-1 cells; format: cell-based, human
Protocol: as §2, §1
For the detection of IDX-1, slightly different conditions were used. Briefly: the concentration of paraformaldehyde was decreased to 2%, and the concentration of Triton to permeabilize the cells was raised to 0.2% Triton-X-100. Cells were then washed with 0.01 M PBS three times for 3-5 min, and non-specific binding was inhibited by using 5% chick serum in 0.01 M PBS, at room temperature for 60 min in a humid chamber. […] The percentage of IDX-1 containing cells was evaluated by counting the number of IDX-1 “positive” cells divided by the total number of cells identified by nuclear staining.

[6] = serum-free medium, 12 mM glucose, 72 h

Which results are given for glucagon-like peptide-1 [GLP-1]?
IDX-1 staining (PANC-1 cells [1]): No positive IDX-1 staining; lowest concentration of glucose required to induce the secretion of insulin (ARIP cells; GLP-1 10 nM for 72 h): 3 mM; glucose dependence of insulin release (ARIP cells; GLP-1 10 nM for 72 h, increasing glucose): release insulin in a glucose-dependent manner; time of maximal insulin secretion (ARIP cells; GLP-1 10 nM, 12 mM glucose): 48 h; time of plateau of insulin secretion (ARIP cells; GLP-1 10 nM, 12 mM glucose): 72 h; GLP-1 concentration at plateau of insulin accumulation in the culture medium (ARIP cells; [6]): 20 nM; minimum concentration of GLP-1 required to transform ARIP ductal cells into insulin producing cells (ARIP cells; [6]): 1 nM; insulin immunostaining (PANC-1/IDX-1 cells [2]): capable of synthesizing insulin; IDX-1 containing cells also positive for intracellular insulin (PANC-1/IDX-1 cells [2]; double immunofluorescence): Approximately 85%; weakly IDX-1 positive cells not stained by anti-insulin antibody (PANC-1/IDX-1 cells [2]; double immunofluorescence): ~20%; insulin immunostaining (PANC-1 cells [3]): No positive insulin immunostaining; morphological change: cell aggregation (PANC-1/IDX-1 cells [4]): further promoted the tendency of forming few-cells aggregates; morphological change: cell size (PANC-1/IDX-1 cells [4]): increase in the size of individual cells; effect on expression level of IDX-1 (PANC-1/IDX-1 cells [5]; GLP-1 10 nM for 72 h): further increase; cells expressing IDX-1 (PANC-1/IDX-1 cells [5]; GLP-1 or vehicle, 400 cells counted): ~100%
